Key:
BoNT/A LC = BoNT/A LC (Clostridium botulinum, UniProt P0DPI0); experiment: biochemical
[1] = tested on: BoNT/A intoxication of mouse ES-MNs (SNAP-25 cleavage); format: cell-based
[2] = tested on: BoNT/E intoxication of human ES-MNs (SNAP-25 cleavage); format: cell-based
[3] = tested on: BoNT/A intoxication of mouse ES-MNs (SNAP-25 cleavage); format: cell-based; remark: listed apart in the source
[4] = tested on: BoNT/A intoxication of human ES-MNs (SNAP-25 cleavage); format: cell-based

Chain of BoNT/A LC (P0DPI0 2-448 limits assumed): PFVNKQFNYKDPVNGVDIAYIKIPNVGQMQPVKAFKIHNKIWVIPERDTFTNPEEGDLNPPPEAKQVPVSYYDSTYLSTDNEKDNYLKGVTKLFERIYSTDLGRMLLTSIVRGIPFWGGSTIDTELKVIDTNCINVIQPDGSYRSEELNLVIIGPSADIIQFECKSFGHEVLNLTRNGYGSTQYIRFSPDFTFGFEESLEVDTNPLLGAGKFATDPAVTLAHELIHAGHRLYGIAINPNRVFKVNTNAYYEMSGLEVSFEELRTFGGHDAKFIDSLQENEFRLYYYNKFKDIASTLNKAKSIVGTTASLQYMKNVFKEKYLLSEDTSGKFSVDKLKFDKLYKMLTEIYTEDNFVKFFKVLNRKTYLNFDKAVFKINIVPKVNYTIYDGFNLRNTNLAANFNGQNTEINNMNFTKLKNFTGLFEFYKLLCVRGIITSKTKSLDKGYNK

SMILES	IC50 (BoNT/A LC) [µM]	Protection against BoNT/A (SNAP-25 cleavage), library screen outcome [1]	Protection of SNAP-25 against BoNT/E, 30 min post-intoxication [2]	Protection of SNAP-25 against BoNT/E, 60 min post-intoxication [2]	Protection of SNAP-25 against BoNT/A, western blot [3]	Antagonism of BoNT/A mediated SNAP-25 cleavage, 60 min post-intoxication [4]	Protection of SNAP-25 against BoNT/A, pre-intoxication, dose dependence [4]
O=C1C(Cl)=C(NCCN2CCOCC2)C(=O)c2ncccc21 [NSC 663284]	> 20	identified as potential BoNT/A intoxication inhibitors	statistically significant protection	statistically significant protection	–	–	–
O=C1C(=O)c2ccccc2-c2ccccc21 [9,10-Phenanthrenequinone]	> 20	identified as potential BoNT/A intoxication inhibitors	statistically significant protection	statistically significant protection	–	–	–
CC1(C)C(=O)N=C2C1=C(O)C(=O)c1ccccc12 [BVT 948]	> 20	identified as potential BoNT/A intoxication inhibitors	efficacious	–	–	–	–
N=C(N)c1ccc(OCCCCCOc2ccc(C(=N)N)cc2)cc1 [Pentamidine]	> 20	identified as potential BoNT/A intoxication inhibitors	not statistically significant	not statistically significant	qualitatively lower level of SNAP-25 cleavage protection	trended toward, but did not reach, statistical significance	qualitatively lower level of SNAP-25 cleavage protection
CO/C1=C\C(C)=C\[C@@H](C)[C@@H](O)[C@@H](C)C/C(C)=C/C=C/[C@H](OC)[C@@H]([C@@H](C)[C@@H](O)[C@H](C)[C@@]2(O)C[C@@H](O)[C@H](C)[C@@H](C(C)C)O2)OC1=O [bafilomycin]	–	–	–	–	–	–	dose-dependent protection

— paper PMC4462581 (PLoS ONE, 2015)
